Experimental data from US8318792B2, “Therapeutic agent for amyotrophic lateral sclerosis” (Nippon Medical School Foundation, priority 2006, dated 2012).

Columns and labels:
Type in all cases: in vivo, mouse
G1H-G93A transgenic mice [1] = assay: Exercise tolerance test: footprint test; conditions: 5 mg/kg oral daily from 80th day (before onset), score 0-4
Method: (§1) The following five kinds of exercise tolerance tests were conducted every fifth day from the 70th day after birth to evaluate the ability to exercise in the respective exercise tolerance tests. That is, the days for the exercise tolerance tests were every fifth days, such as the 70th day, 75th day, 80th day, 85th day and so on, after birth. The exercise tolerance tests were conducted throughout the survival period, and the post-mortem evaluation was based on the definitions of the following five kinds of exercise tolerance tests.
Both hindlimbs of a mouse are dipped in a black ink bottle, and then the mouse is allowed to walk on white paper. The footprints of the two hindlimbs of the mouse after the walking are analyzed. […] The post-mortem evaluation of the footprint test is defined as score 4.

G1H-G93A transgenic mice [2] = assay: Exercise tolerance test: inclined plane test; conditions: for Inclined plane test score: 5 mg/kg oral daily from 80th day (before onset), score 0-3, 5 mg/kg
Method: as §1
The apparatus used in the inclined plane test is an apparatus allowing a wooden board to be fixed at the respective angles of 45°, 65° and 80° from a horizontal plane. A mouse is placed in the posture of head-up position on the wooden board inclined at each angle and the mouse is allowed to maintain this position for 5 seconds without falling downward. In the evaluation method of the inclined plane test for each mouse, the number of seconds (TA seconds: 5 seconds or less) during which the position could be maintained without falling downward is measured at each of the angles (A) of 45°, 65° and 80°, and then the total sum value of the products of the angle (A) and the number of seconds (TA) during which the position could be maintained: Σ [Angle(A)×Time (TA)] is calculated. Since a normal mouse is capable of maintaining the position on the wooden board inclined to the respective angles for 5 seconds, the sum value of Σ [Angle(A)×Time (TA)] will be 80×5+65×5+45×5=950. The evaluation of the inclined plane test for the mouse was performed based on the following criteria: Score 0=950; Score 1=over 550 to less than 950; Score 2=over 225 to 550; and Score 3=225 and below. The post-mortem evaluation of the inclined plane test is defined as score 3.

G1H-G93A transgenic mice [3] = assay: Exercise tolerance test: extension reflex test; conditions: for Extension reflex test score: 5 mg/kg oral daily from 80th day (before onset), score 0-2, 5 mg/kg
Method: as §1
As for extension reflex, extension of the hindlimbs is normally observed when a mouse is suspended in the air by its tail.
The evaluation of extension reflex test of the mice was performed based on the following criteria: Score 0=Extension reflex is recognized in both of the hindlimbs; Score 1=Extension reflex is recognized only one hindlimb; and Score 2=Extension reflex is not recognized in both of the hindlimbs. The post-mortem evaluation of the extension reflex test is defined as score 2.

CC(C)(C)COc1ccc(-n2cc(C(=O)O)cn2)cc1C#N [compound (a), 1-[3-cyano-4-(2,2-dimethylpropoxy)phenyl]-1H-pyrazole-4-carboxylic acid]
Footprint test score (G1H-G93A transgenic mice [1]; 70th day after birth): 0.0±0.0
Footprint test score (G1H-G93A transgenic mice [1]; 75th day after birth): 0.0±0.0
Footprint test score (G1H-G93A transgenic mice [1]; 80th day after birth): 0.0±0.0
Footprint test score (G1H-G93A transgenic mice [1]; 85th day after birth): 0.0±0.0
Footprint test score (G1H-G93A transgenic mice [1]; 90th day after birth): 0.0±0.0
Footprint test score (G1H-G93A transgenic mice [1]; 95th day after birth): 0.0±0.0
Footprint test score (G1H-G93A transgenic mice [1]; 100th day after birth): 0.0±0.0
Footprint test score (G1H-G93A transgenic mice [1]; 105th day after birth): 0.0±0.0
Footprint test score (G1H-G93A transgenic mice [1]; 110th day after birth): 0.1±0.3
Footprint test score (G1H-G93A transgenic mice [1]; 115th day after birth): 0.6±0.7
Footprint test score (G1H-G93A transgenic mice [1]; 120th day after birth): 1.8±0.9
Footprint test score (G1H-G93A transgenic mice [1]; 125th day after birth): 2.8±0.4
Footprint test score (G1H-G93A transgenic mice [1]; 130th day after birth): 3.4±0.5
Footprint test score (G1H-G93A transgenic mice [1]; 135th day after birth): 3.9±0.3
Footprint test score (G1H-G93A transgenic mice [1]; 140th day after birth): 4.0±0.0
Inclined plane test score (G1H-G93A transgenic mice [2]; 70th day after birth): 0.0±0.0
Inclined plane test score (G1H-G93A transgenic mice [2]; 75th day after birth): 0.0±0.0
Inclined plane test score (G1H-G93A transgenic mice [2]; 80th day after birth): 0.0±0.0
Inclined plane test score (G1H-G93A transgenic mice [2]; 85th day after birth): 0.0±0.0
Inclined plane test score (G1H-G93A transgenic mice [2]; 90th day after birth): 0.0±0.0
Inclined plane test score (G1H-G93A transgenic mice [2]; 95th day after birth): 0.0±0.0
Inclined plane test score (G1H-G93A transgenic mice [2]; 100th day after birth): 0.0±0.0
Inclined plane test score (G1H-G93A transgenic mice [2]; 105th day after birth): 0.0±0.0
Inclined plane test score (G1H-G93A transgenic mice [2]; 110th day after birth): 0.0±0.0
effect in inclined plane test as compared to placebo group (G1H-G93A transgenic mice [2]; 110th, 115th, 120th, 125th and 130th day, 5 mg/kg oral daily from 80th day after birth, Mann-Whitney's U test): significant effects
Inclined plane test score (G1H-G93A transgenic mice [2]; 115th day after birth): 0.1±0.3
Inclined plane test score (G1H-G93A transgenic mice [2]; 120th day after birth): 0.4±0.5
Inclined plane test score (G1H-G93A transgenic mice [2]; 125th day after birth): 1.1±0.9
Inclined plane test score (G1H-G93A transgenic mice [2]; 130th day after birth): 2.1±0.9
Inclined plane test score (G1H-G93A transgenic mice [2]; 135th day after birth): 2.7±0.5
Inclined plane test score (G1H-G93A transgenic mice [2]; 140th day after birth): 3.0±0.0
Extension reflex test score (G1H-G93A transgenic mice [3]; 70th day after birth): 0.0±0.0
Extension reflex test score (G1H-G93A transgenic mice [3]; 75th day after birth): 0.0±0.0
Extension reflex test score (G1H-G93A transgenic mice [3]; 80th day after birth): 0.0±0.0
Extension reflex test score (G1H-G93A transgenic mice [3]; 85th day after birth): 0.0±0.0
Extension reflex test score (G1H-G93A transgenic mice [3]; 90th day after birth): 0.0±0.0
Extension reflex test score (G1H-G93A transgenic mice [3]; 95th day after birth): 0.0±0.0
Extension reflex test score (G1H-G93A transgenic mice [3]; 100th day after birth): 0.0±0.0
Extension reflex test score (G1H-G93A transgenic mice [3]; 105th day after birth): 0.0±0.0
effect in extension reflex test as compared to placebo group (G1H-G93A transgenic mice [3]; 105th, 110th, 115th and 120th day, 5 mg/kg oral daily from 80th day after birth, Mann-Whitney's U test): significant effects
Extension reflex test score (G1H-G93A transgenic mice [3]; 110th day after birth): 0.1±0.3
Extension reflex test score (G1H-G93A transgenic mice [3]; 115th day after birth): 0.5±0.5
Extension reflex test score (G1H-G93A transgenic mice [3]; 120th day after birth): 0.9±0.7
Extension reflex test score (G1H-G93A transgenic mice [3]; 125th day after birth): 1.5±0.5
Extension reflex test score (G1H-G93A transgenic mice [3]; 130th day after birth): 1.9±0.3
Extension reflex test score (G1H-G93A transgenic mice [3]; 135th day after birth): 2.0±0.0
Extension reflex test score (G1H-G93A transgenic mice [3]; 140th day after birth): 2.0±0.0
